Where no end group is shown, it is not given here.
What was measured:
MDM2 = conditions: method not stated; cited from earlier work
[1] = system: E5-p53TAD1/MDM2 interaction; conditions: for number of translocation events, % of free E5-p53TAD1 peptide: molar ratio 1 : 3 : 5; for number of translocation events N after inhibitor addition: molar ratio 1 : 3 : 5 (peptide : MDM2 : inhibitor), 10 min-current trace
MDM2 (residues 3–109) = MDM2 (residues 3–109) (Homo sapiens, UniProt Q00987); assay: aerolysin nanopore detection of peptide/MDM2 interaction; assay type: binding
aerolysin nanopore = aerolysin nanopore (Aeromonas hydrophila, UniProt P09167); assay: aerolysin nanopore single-channel recording of free analyte
aerolysin nanopore, sequence (P09167 24-445 limits assumed): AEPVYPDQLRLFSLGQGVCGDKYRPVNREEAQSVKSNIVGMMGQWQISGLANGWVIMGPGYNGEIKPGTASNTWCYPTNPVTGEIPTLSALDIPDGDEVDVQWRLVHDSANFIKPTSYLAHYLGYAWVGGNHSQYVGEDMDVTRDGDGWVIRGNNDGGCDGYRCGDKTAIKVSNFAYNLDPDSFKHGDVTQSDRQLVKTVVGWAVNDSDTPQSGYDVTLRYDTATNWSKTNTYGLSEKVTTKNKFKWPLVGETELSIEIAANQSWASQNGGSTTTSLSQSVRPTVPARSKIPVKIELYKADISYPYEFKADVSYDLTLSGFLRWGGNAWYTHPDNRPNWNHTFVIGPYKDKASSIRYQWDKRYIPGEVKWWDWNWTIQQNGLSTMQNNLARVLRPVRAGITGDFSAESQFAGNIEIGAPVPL

MDM2 (residues 3–109), sequence (Q00987 3-109): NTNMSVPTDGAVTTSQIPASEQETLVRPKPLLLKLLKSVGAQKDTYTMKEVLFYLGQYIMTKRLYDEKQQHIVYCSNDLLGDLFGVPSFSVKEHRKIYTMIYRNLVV

## CN[C@@H](C)C(=O)N[C@H](C(=O)N1CCC[C@H]1c1nc(C(=O)c2ccc(F)cc2)cs1)C1CCCCC1 [LCL161]
MDM2
  MDM2 binding (in words): does not bind to MDM2

## CC(C)[C@@H](CS(=O)(=O)C(C)C)N1C(=O)[C@@](C)(CC(=O)O)C[C@H](c2cccc(Cl)c2)[C@H]1c1ccc(Cl)cc1 [AMG232]
[1]
  number of translocation events, % of free E5-p53TAD1 peptide: ~99.8%
  number of translocation events N after inhibitor addition: 1570

## COc1ccc(C2=N[C@@H](c3ccc(Cl)cc3)[C@@H](c3ccc(Cl)cc3)N2C(=O)N2CCNC(=O)C2)c(OC(C)C)c1 [Nutlin-3]
[1]
  number of translocation events, % of free E5-p53TAD1 peptide: ~61.3%
  number of translocation events N after inhibitor addition: 965

## EEEEESQETFSDLWKLLPEN [E5-p53TAD1]
MDM2 (residues 3–109)
  Kd: 1070 ± 90 nM
MDM2 (residues 3–109); E5-p53TAD1/MDM2 complex, 140 mV
  dwell time of extraordinarily long-lived current blockage: 0.1 s ∼ tens of min
Aerolysin nanopore; free E5-p53TAD1 peptide, 10 min-current trace
  number of nanopore events N: 1573
Aerolysin nanopore; free peptide
  dwell time of short-lived translocation / nanopore events: < 10^2 ms
Aerolysin nanopore; free peptide, 140 mV, single exponential fit
  mean dwell time td: ~0.8 ms

Reference: paper PMC8179679 (Chemical Science, 2021)
